Test results taken from patent publication US20130288989A1, “NEW USE OF CHEMICAL INGREDIENTS IN CYNOMORIUM AS PHYTOESTROGEN” (TIANJIN UNIVERSITY OF TRADITIONAL CHINESE MEDICINE, priority 2010, published 2013).

molecular target: T1, ERα (Homo sapiens, UniProt P03372); assay: ERα luciferase reporter gene transcription activation in transfected Hela cells; format: cell-based; conditions: Hela cells, 10^−5 M, 24 h
T1 construct: expressed in transfected cells; host or cells: Hela cells (ER expression free)
T1 sequence (P03372 1-595): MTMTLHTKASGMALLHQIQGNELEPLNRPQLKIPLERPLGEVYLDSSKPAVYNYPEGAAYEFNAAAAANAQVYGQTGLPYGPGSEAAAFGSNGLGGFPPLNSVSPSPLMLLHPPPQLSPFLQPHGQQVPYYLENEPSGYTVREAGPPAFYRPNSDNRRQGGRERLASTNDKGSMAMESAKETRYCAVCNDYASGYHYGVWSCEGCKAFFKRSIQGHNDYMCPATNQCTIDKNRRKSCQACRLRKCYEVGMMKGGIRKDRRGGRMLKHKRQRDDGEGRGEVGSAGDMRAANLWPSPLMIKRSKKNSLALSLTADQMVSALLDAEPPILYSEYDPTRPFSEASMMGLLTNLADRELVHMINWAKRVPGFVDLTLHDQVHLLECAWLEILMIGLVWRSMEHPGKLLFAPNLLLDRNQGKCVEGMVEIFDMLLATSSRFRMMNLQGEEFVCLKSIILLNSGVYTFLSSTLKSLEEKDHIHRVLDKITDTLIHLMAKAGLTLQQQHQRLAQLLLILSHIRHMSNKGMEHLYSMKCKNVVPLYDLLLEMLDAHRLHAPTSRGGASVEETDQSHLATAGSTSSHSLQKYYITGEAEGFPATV
From the text: (§1) Actually, estrogens show their biological activity by regulating estrogen responding genetic transcription.
(§2) Formulation of sample solutions of catechin, (−)epicatechin-3-O-gallate, naringenin-4′-O-glucoside, phlorizin, emodin, chrysophanol (separately obtained from Example 1):
(§3) Catechin, (−)epicatechin-3-O-gallate, naringenin-4′-O-glucoside, phlorizin, emodin, chrysophanol in corresponding weights were separately weighed precisely, than added with DMSO for dissolution, the corresponding sample solution high dose groups (10 μM or 1 μM), were diluted in certain times to separately obtain low dose groups (1 μM to 0.001 μM).
(§4) Under condition of 37° C. and 5% CO2, Hela cells were cultured in phenol red-free high sugar DMEM culture medium containing 10% calf serum in incubator, the cells were spread in 60% density on 96-well plate when cell density was about 90%, each well was added with 150 ul of phenol red-free DMEM culture medium containing 10% serum, cultivation was performed overnight. To each well of the 96-well plate, 100 ul of serum-free DMEM culture medium and 0.4 μg plasmid (ptk-ERE-luc 2 μg, tk-Renila 1 μg, ERα or ERβ 1 μg) were used for transfection. After 6 h of transfection, each well was added with 150 ul of serum-free phenol red-free DMEM culture medium. Three wells were selected form each group, added with 10^−8M estradiol E2, and substance to be tested in different concentrations, 15 ul/well (sample 4-5 concentration gradient groups), continuously cultured under condition of 37° C., 5% CO2 for 24 h. After 24 h, each well was added with 80 μl of cell disruption solution, and the cells were subjected to freeze thawing once to be sufficiently disrupted. As for the cell lysis solution of each well, its activities to firefly luciferase and Renila luciferase were separately measured.

Structure (SMILES)	ERα (% of the control) mean ± S.D.
O=C1C[C@@H](c2ccc(O[C@@H]3O[C@H](CO)[C@@H](O)[C@H](O)[C@H]3O)cc2)Oc2cc(O)cc(O)c21 [Naringenin-4′-O-glucoside, naringenin-4′-O-glucoside]	188.07 ± 18.61 % of the control

same assay, conditions: Hela cells, 10^−5 M, estradiol at 10^−8M

Structure (SMILES)	ERα (% of estradiol)
O=C1C[C@@H](c2ccc(O[C@@H]3O[C@H](CO)[C@@H](O)[C@H](O)[C@H]3O)cc2)Oc2cc(O)cc(O)c21 [Naringenin-4′-O-glucoside, naringenin-4′-O-glucoside]	(91.88) % of estradiol

same assay, conditions: Hela cells, 10^−6 M, 24 h

Structure (SMILES)	ERα (% of the control) mean ± S.D.
O=C1C[C@@H](c2ccc(O[C@@H]3O[C@H](CO)[C@@H](O)[C@H](O)[C@H]3O)cc2)Oc2cc(O)cc(O)c21 [Naringenin-4′-O-glucoside, naringenin-4′-O-glucoside]	198.72 ± 3.99 % of the control

same assay, conditions: Hela cells, 10^−6 M, estradiol at 10^−8M

Structure (SMILES)	ERα (% of estradiol)
O=C1C[C@@H](c2ccc(O[C@@H]3O[C@H](CO)[C@@H](O)[C@H](O)[C@H]3O)cc2)Oc2cc(O)cc(O)c21 [Naringenin-4′-O-glucoside, naringenin-4′-O-glucoside]	(97.08) % of estradiol

same assay, conditions: Hela cells, 10^−7 M, 24 h

Structure (SMILES)	ERα (% of the control) mean ± S.D.
O=C1C[C@@H](c2ccc(O[C@@H]3O[C@H](CO)[C@@H](O)[C@H](O)[C@H]3O)cc2)Oc2cc(O)cc(O)c21 [Naringenin-4′-O-glucoside, naringenin-4′-O-glucoside]	182.34 ± 5.97 % of the control

same assay, conditions: Hela cells, 10^−7 M, estradiol at 10^−8M

Structure (SMILES)	ERα (% of estradiol)
O=C1C[C@@H](c2ccc(O[C@@H]3O[C@H](CO)[C@@H](O)[C@H](O)[C@H]3O)cc2)Oc2cc(O)cc(O)c21 [Naringenin-4′-O-glucoside, naringenin-4′-O-glucoside]	(89.08) % of estradiol

same assay, conditions: Hela cells, 10^−8 M, 24 h

Structure (SMILES)	ERα (% of the control) mean ± S.D.
O=C1C[C@@H](c2ccc(O[C@@H]3O[C@H](CO)[C@@H](O)[C@H](O)[C@H]3O)cc2)Oc2cc(O)cc(O)c21 [Naringenin-4′-O-glucoside, naringenin-4′-O-glucoside]	157.62 ± 14.54 % of the control

same assay, conditions: Hela cells, 10^−8 M, estradiol at 10^−8M

Structure (SMILES)	ERα (% of estradiol)
O=C1C[C@@H](c2ccc(O[C@@H]3O[C@H](CO)[C@@H](O)[C@H](O)[C@H]3O)cc2)Oc2cc(O)cc(O)c21 [Naringenin-4′-O-glucoside, naringenin-4′-O-glucoside]	(77.00) % of estradiol

same assay, conditions: Hela cells, 10^−9 M, 24 h

Structure (SMILES)	ERα (% of the control) mean ± S.D.
O=C1C[C@@H](c2ccc(O[C@@H]3O[C@H](CO)[C@@H](O)[C@H](O)[C@H]3O)cc2)Oc2cc(O)cc(O)c21 [Naringenin-4′-O-glucoside, naringenin-4′-O-glucoside]	110.04 ± 5.59 % of the control

same assay, conditions: Hela cells, 10^−9 M, estradiol at 10^−8M

Structure (SMILES)	ERα (% of estradiol)
O=C1C[C@@H](c2ccc(O[C@@H]3O[C@H](CO)[C@@H](O)[C@H](O)[C@H]3O)cc2)Oc2cc(O)cc(O)c21 [Naringenin-4′-O-glucoside, naringenin-4′-O-glucoside]	(53.76) % of estradiol

same assay, conditions: luciferase reporter gene

Structure (SMILES)	concentration at which the transcriptional activity of ERα is agonized
O=C1C[C@@H](c2ccc(O[C@@H]3O[C@H](CO)[C@@H](O)[C@H](O)[C@H]3O)cc2)Oc2cc(O)cc(O)c21 [Naringenin-4′-O-glucoside, naringenin-4′-O-glucoside]	10^−9-10^−5 M

system: estrogen receptor; assay: Estrogen receptor activation test: overall estrogen activity and ERβ versus ERα comparison; format: cell-based; conditions: Hela cells, sample 10^−5 M
Protocol: as §1, §4

Structure (SMILES)	ERβ/ERα (both % of estradiol at 10^−8M)
O=C1C[C@@H](c2ccc(O[C@@H]3O[C@H](CO)[C@@H](O)[C@H](O)[C@H]3O)cc2)Oc2cc(O)cc(O)c21 [Naringenin-4′-O-glucoside, naringenin-4′-O-glucoside]	1.18

same assay, conditions: Hela cells, sample 10^−6 M

Structure (SMILES)	ERβ/ERα (both % of estradiol at 10^−8M)
O=C1C[C@@H](c2ccc(O[C@@H]3O[C@H](CO)[C@@H](O)[C@H](O)[C@H]3O)cc2)Oc2cc(O)cc(O)c21 [Naringenin-4′-O-glucoside, naringenin-4′-O-glucoside]	1.07

same assay, conditions: Hela cells, sample 10^−7 M

Structure (SMILES)	ERβ/ERα (both % of estradiol at 10^−8M)
O=C1C[C@@H](c2ccc(O[C@@H]3O[C@H](CO)[C@@H](O)[C@H](O)[C@H]3O)cc2)Oc2cc(O)cc(O)c21 [Naringenin-4′-O-glucoside, naringenin-4′-O-glucoside]	1.13

same assay, conditions: Hela cells, sample 10^−8 M

Structure (SMILES)	ERβ/ERα (both % of estradiol at 10^−8M)
O=C1C[C@@H](c2ccc(O[C@@H]3O[C@H](CO)[C@@H](O)[C@H](O)[C@H]3O)cc2)Oc2cc(O)cc(O)c21 [Naringenin-4′-O-glucoside, naringenin-4′-O-glucoside]	1.18

same assay, conditions: Hela cells, sample 10^−9 M

Structure (SMILES)	ERβ/ERα (both % of estradiol at 10^−8M)
O=C1C[C@@H](c2ccc(O[C@@H]3O[C@H](CO)[C@@H](O)[C@H](O)[C@H]3O)cc2)Oc2cc(O)cc(O)c21 [Naringenin-4′-O-glucoside, naringenin-4′-O-glucoside]	1.29

same assay, conditions: estradiol as positive control

Structure (SMILES)	estrogen activity / estrogen receptor activation (in words)
O=C1C[C@@H](c2ccc(O[C@@H]3O[C@H](CO)[C@@H](O)[C@H](O)[C@H]3O)cc2)Oc2cc(O)cc(O)c21 [Naringenin-4′-O-glucoside, naringenin-4′-O-glucoside]	show relevance to estrogen receptor activation

same assay, conditions: estradiol as positive control; listed as naringenin-4′-β-glucoside

Structure (SMILES)	estrogen activity / estrogen receptor activation (in words)
O=C1C[C@@H](c2ccc(O[C@@H]3O[C@H](CO)[C@@H](O)[C@H](O)[C@H]3O)cc2)Oc2cc(O)cc(O)c21 [Naringenin-4′-O-glucoside, naringenin-4′-O-glucoside]	potent activity of estrogen

same assay, conditions: result in words

Structure (SMILES)	dose dependence of agonism of ERα and ERβ transcriptional activity	selectivity to receptor subtypes (ERα vs ERβ)
O=C1C[C@@H](c2ccc(O[C@@H]3O[C@H](CO)[C@@H](O)[C@H](O)[C@H]3O)cc2)Oc2cc(O)cc(O)c21 [Naringenin-4′-O-glucoside, naringenin-4′-O-glucoside]	in a dose dependent manner	a higher selectivity to ERβ than ERα

molecular target: T2, ERβ (Homo sapiens, UniProt Q92731); assay: ERβ luciferase reporter gene transcription activation in transfected Hela cells; format: cell-based; conditions: Hela cells, 10^−5 M, 24 h
T2 construct: expressed in transfected cells; host or cells: Hela cells (ER expression free)
T2 sequence (Q92731 whole entry): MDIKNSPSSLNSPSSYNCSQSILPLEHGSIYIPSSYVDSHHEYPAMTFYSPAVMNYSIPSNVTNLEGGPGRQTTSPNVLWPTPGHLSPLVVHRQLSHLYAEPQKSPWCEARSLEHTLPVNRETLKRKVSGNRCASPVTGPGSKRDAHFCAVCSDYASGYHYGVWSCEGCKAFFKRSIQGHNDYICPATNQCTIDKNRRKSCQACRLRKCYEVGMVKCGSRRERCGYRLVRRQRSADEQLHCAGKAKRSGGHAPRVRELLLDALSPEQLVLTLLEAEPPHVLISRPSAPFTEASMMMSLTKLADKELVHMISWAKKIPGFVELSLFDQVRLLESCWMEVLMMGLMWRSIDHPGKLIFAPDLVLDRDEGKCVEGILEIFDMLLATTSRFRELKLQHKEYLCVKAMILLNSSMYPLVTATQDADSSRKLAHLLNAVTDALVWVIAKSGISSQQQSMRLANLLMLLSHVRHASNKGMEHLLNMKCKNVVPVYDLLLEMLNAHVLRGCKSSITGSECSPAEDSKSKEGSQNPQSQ
From the text: as §1, §2, §3, §4

Structure (SMILES)	ERβ (% of the control) mean ± S.D.
O=C1C[C@@H](c2ccc(O[C@@H]3O[C@H](CO)[C@@H](O)[C@H](O)[C@H]3O)cc2)Oc2cc(O)cc(O)c21 [Naringenin-4′-O-glucoside, naringenin-4′-O-glucoside]	215.85 ± 22.32 % of the control

same assay, conditions: Hela cells, 10^−5 M, estradiol at 10^−8M

Structure (SMILES)	ERβ (% of estradiol)
O=C1C[C@@H](c2ccc(O[C@@H]3O[C@H](CO)[C@@H](O)[C@H](O)[C@H]3O)cc2)Oc2cc(O)cc(O)c21 [Naringenin-4′-O-glucoside, naringenin-4′-O-glucoside]	(108.71) % of estradiol

same assay, conditions: Hela cells, 10^−6 M, 24 h

Structure (SMILES)	ERβ (% of the control) mean ± S.D.
O=C1C[C@@H](c2ccc(O[C@@H]3O[C@H](CO)[C@@H](O)[C@H](O)[C@H]3O)cc2)Oc2cc(O)cc(O)c21 [Naringenin-4′-O-glucoside, naringenin-4′-O-glucoside]	207.11 ± 15.76 % of the control

same assay, conditions: Hela cells, 10^−6 M, estradiol at 10^−8M

Structure (SMILES)	ERβ (% of estradiol)
O=C1C[C@@H](c2ccc(O[C@@H]3O[C@H](CO)[C@@H](O)[C@H](O)[C@H]3O)cc2)Oc2cc(O)cc(O)c21 [Naringenin-4′-O-glucoside, naringenin-4′-O-glucoside]	(104.30) % of estradiol

same assay, conditions: Hela cells, 10^−7 M, 24 h

Structure (SMILES)	ERβ (% of the control) mean ± S.D.
O=C1C[C@@H](c2ccc(O[C@@H]3O[C@H](CO)[C@@H](O)[C@H](O)[C@H]3O)cc2)Oc2cc(O)cc(O)c21 [Naringenin-4′-O-glucoside, naringenin-4′-O-glucoside]	200.66 ± 5.22 % of the control

same assay, conditions: Hela cells, 10^−7 M, estradiol at 10^−8M

Structure (SMILES)	ERβ (% of estradiol)
O=C1C[C@@H](c2ccc(O[C@@H]3O[C@H](CO)[C@@H](O)[C@H](O)[C@H]3O)cc2)Oc2cc(O)cc(O)c21 [Naringenin-4′-O-glucoside, naringenin-4′-O-glucoside]	(101.06) % of estradiol

same assay, conditions: Hela cells, 10^−8 M, 24 h

Structure (SMILES)	ERβ (% of the control) mean ± S.D.
O=C1C[C@@H](c2ccc(O[C@@H]3O[C@H](CO)[C@@H](O)[C@H](O)[C@H]3O)cc2)Oc2cc(O)cc(O)c21 [Naringenin-4′-O-glucoside, naringenin-4′-O-glucoside]	180.98 ± 10.46 % of the control

same assay, conditions: Hela cells, 10^−8 M, estradiol at 10^−8M

Structure (SMILES)	ERβ (% of estradiol)
O=C1C[C@@H](c2ccc(O[C@@H]3O[C@H](CO)[C@@H](O)[C@H](O)[C@H]3O)cc2)Oc2cc(O)cc(O)c21 [Naringenin-4′-O-glucoside, naringenin-4′-O-glucoside]	(91.14) % of estradiol

same assay, conditions: Hela cells, 10^−9 M, 24 h

Structure (SMILES)	ERβ (% of the control) mean ± S.D.
O=C1C[C@@H](c2ccc(O[C@@H]3O[C@H](CO)[C@@H](O)[C@H](O)[C@H]3O)cc2)Oc2cc(O)cc(O)c21 [Naringenin-4′-O-glucoside, naringenin-4′-O-glucoside]	137.90 ± 9.40 % of the control

same assay, conditions: Hela cells, 10^−9 M, estradiol at 10^−8M

Structure (SMILES)	ERβ (% of estradiol)
O=C1C[C@@H](c2ccc(O[C@@H]3O[C@H](CO)[C@@H](O)[C@H](O)[C@H]3O)cc2)Oc2cc(O)cc(O)c21 [Naringenin-4′-O-glucoside, naringenin-4′-O-glucoside]	(69.45) % of estradiol

same assay, conditions: luciferase reporter gene

Structure (SMILES)	concentration at which the transcriptional activity of ERβ is agonized
O=C1C[C@@H](c2ccc(O[C@@H]3O[C@H](CO)[C@@H](O)[C@H](O)[C@H]3O)cc2)Oc2cc(O)cc(O)c21 [Naringenin-4′-O-glucoside, naringenin-4′-O-glucoside]	10^−9-10^−5 M
